# Measurements from patent US20040214803A1, “Use of vitamin d3 analogue for the treatment of autoimmune diabetes” (priority 2001, published 2004).
# Legend:
# [1] = tested on: IL-12p75; settings: short treatment; Mattner et al. 2000; cited from earlier work
# [2] = tested on: IL-12; settings: cited from earlier work
# [3] = tested on: NOD mice; settings: cited from earlier work
# [4] = tested on: vascularized heart allograft; assay: Vascularized heart allograft survival, C57BL/6 into BALB/c recipients; format: in vivo, mouse; settings: Dose 5 (unit not given) per os 3x/w every other day from d-1 until d+30
# Excerpt: Fully vascularized hearts were grafted into the abdomen of recipient mice as described (Corry, R. J., H. J. Winn, and P. S. Russell. Primarily vascularized allografts of hearts in mice. The role of H-2D, H-2K, and non-H-2 antigens in rejection. Transplantation. 1973, 16:343). Graft survival was monitored by palpation and rejection was confirmed by direct graft inspection.
# [5] = administered to NOD mice starting from three weeks of age
smiles,measurement,setting,value
"C=C1/C(=C\C=C2/CCC[C@]3(C)[C@@H]([C@H](C)CCCC(C)(C)O)CC[C@@H]23)C[C@@H](O)C[C@@H]1O [1,25(OH)2D3, 1,25-dihydroxyvitamin D3]","LPS-induced serum levels of both cytokines (IL-12, IFN-γ)",[1],can be inhibited
same,IL-12 production,[2],inhibits IL-12 production
same,preventing progression of diabetes,[3]; administered to NOD mice from 8 weeks of age,ineffective
same,incidence of insulitis,[3]; [5],reduces the incidence of insulitis
same,type 1 DM development,[3]; [5],prevents type 1 DM development
C=C1/C(=C\C=C2/CCC[C@@]3(C)C2CCC3[C@@H](C)CCCC(C)(C)O)C[C@@H](O)C[C@@H]1O (stereo partly shown) [MC1288],incidence of disease,"[3]; treatment of 8 week-old NOD mice, combined or alone",neither treatment alone was effective
"C=C1/C(=C\C=C2/CCC[C@@]3(C)C2CCC3[C@H](C)CCCC(C)(C)O)C[C@@H](O)C[C@@H]1O (stereo partly shown) [Reference, reference compound]",Graft survival (days) Mean,[4],14.33 days
